Experimental data as given in ChEMBL document CHEMBL6096706, “Discovery of WDR5-MLL1 and HDAC Dual-Target Inhibitors for the Treatment of Acute Myeloid Leukemia” (J Med Chem, 2025).

Tests used:
MV4-11 [1] = experiment: Antiproliferative activity against human MV4-11 cells assessed as growth inhibition at 0.5 uM measured after 72 hrs by CellTiterGlo assay; type: functional; conditions: read-out: GI
MV4-11 [2] = experiment: Antiproliferative activity against human MV4-11 cells assessed as growth inhibition at 0.05 uM measured after 72 hrs in presence of 0.05 uM of vorinostat by CellTiterGlo assay; type: functional; conditions: read-out: GI
MV4-11 [3] = experiment: Antiproliferative activity against human MV4-11 cells assessed as growth inhibition at 2 uM measured after 72 hrs in presence of 0.1 uM of vorinostat by CellTiterGlo assay; type: functional; conditions: read-out: GI
MV4-11 [4] = experiment: Antiproliferative activity against human MV4-11 cells assessed as growth inhibition at 2 uM measured after 72 hrs in presence of 0.2 uM of vorinostat by CellTiterGlo assay; type: functional; conditions: read-out: GI
MV4-11 [5] = experiment: Antiproliferative activity against human MV4-11 cells assessed as growth inhibition at 0.5 uM measured after 72 hrs in presence of 0.2 uM of vorinostat by CellTiterGlo assay; type: functional; conditions: read-out: GI
MV4-11 [6] = experiment: Antiproliferative activity against human MV4-11 cells assessed as growth inhibition at 2 uM measured after 72 hrs in presence of 0.4 uM of vorinostat by CellTiterGlo assay; type: functional; conditions: read-out: GI
MV4-11 [7] = experiment: Antiproliferative activity against human MV4-11 cells assessed as growth inhibition at 0.4 uM measured after 72 hrs in presence of 0.4 uM of vorinostat by CellTiterGlo assay; type: functional; conditions: read-out: GI
MV4-11 [8] = experiment: Antiproliferative activity against human MV4-11 cells assessed as growth inhibition at 1 uM measured after 72 hrs in presence of 0.4 uM of vorinostat by CellTiterGlo assay; type: functional; conditions: read-out: GI
MV4-11 [9] = experiment: Antiproliferative activity against human MV4-11 cells assessed as growth inhibition at 1 uM measured after 72 hrs in presence of 0.05 uM of vorinostat by CellTiterGlo assay; type: functional; conditions: read-out: GI
MV4-11 [10] = experiment: Antiproliferative activity against human MV4-11 cells assessed as growth inhibition at 2 uM measured after 72 hrs in presence of 0.5 uM of vorinostat by CellTiterGlo assay; type: functional; conditions: read-out: GI
MV4-11 [11] = experiment: Antiproliferative activity against human MV4-11 cells assessed as growth inhibition at 2 uM measured after 72 hrs in presence of 1 uM of vorinostat by CellTiterGlo assay; type: functional; conditions: read-out: GI
MV4-11 [12] = experiment: Antiproliferative activity against human MV4-11 cells assessed as growth inhibition at 0.1 uM measured after 72 hrs in presence of 0.2 uM of vorinostat by CellTiterGlo assay; type: functional; conditions: read-out: GI
MV4-11 [13] = experiment: Antiproliferative activity against human MV4-11 cells assessed as growth inhibition at 0.4 uM measured after 72 hrs in presence of 0.5 uM of vorinostat by CellTiterGlo assay; type: functional; conditions: read-out: GI
MV4-11 [14] = experiment: Induction of apoptosis in human MV4-11 cells assessed as late apoptotic cells at 200 nM incubated for 72 hrs in presence of vorinostat by Annexin V/PI staining based flow cytometry analysis (reference value: 6.42 %); type: functional
MV4-11 [15] = experiment: Antiproliferative activity against human MV4-11 cells assessed as growth inhibition at 0.05 uM measured after 72 hrs in presence of 0.4 uM of vorinostat by CellTiterGlo assay; type: functional; conditions: read-out: GI
MV4-11 [16] = experiment: Antiproliferative activity against human MV4-11 cells assessed as growth inhibition at 0.05 uM measured after 72 hrs by CellTiterGlo assay; type: functional; conditions: read-out: GI
MV4-11 [17] = experiment: Antiproliferative activity against human MV4-11 cells assessed as growth inhibition at 0.2 uM measured after 72 hrs in presence of 0.5 uM of vorinostat by CellTiterGlo assay; type: functional; conditions: read-out: GI
MV4-11 [18] = experiment: Antiproliferative activity against human MV4-11 cells assessed as growth inhibition at 0.5 uM measured after 72 hrs in presence of 0.1 uM of vorinostat by CellTiterGlo assay; type: functional; conditions: read-out: GI
MV4-11 [19] = experiment: Antiproliferative activity against human MV4-11 cells assessed as growth inhibition at 0.2 uM measured after 72 hrs in presence of 0.4 uM of vorinostat by CellTiterGlo assay; type: functional; conditions: read-out: GI
MV4-11 [20] = experiment: Antiproliferative activity against human MV4-11 cells assessed as growth inhibition at 0.4 uM measured after 72 hrs in presence of 0.1 uM of vorinostat by CellTiterGlo assay; type: functional; conditions: read-out: GI
MV4-11 [21] = experiment: Induction of apoptosis in human MV4-11 cells assessed as necrotic cells at 600 nM incubated for 72 hrs in presence of vorinostat by Annexin V/PI staining based flow cytometry analysis (reference value: 2.61%); type: functional
MV4-11 [22] = experiment: Induction of apoptosis in human MV4-11 cells assessed as necrotic cells at 50 nmol/L incubated for 72 hrs by Annexin V/PI staining based flow cytometry analysis (reference value: 0.46%); type: functional
MV4-11 [23] = experiment: Antitumor activity against human MV4-11 cells xenografted in mouse assessed as tumor growth inhibition at 30 mg/kg, ip administered daily for 17 days; type: functional; conditions: MV4-11, 408 h, time 17 day, read-out: TGI
Histone deacetylase 4 = Histone deacetylase 4 (Homo sapiens, UniProt P56524); experiment: Inhibition of HDAC4 (unknown origin) by fluorescence based assay
MV4-11 [24] = experiment: Induction of apoptosis in human MV4-11 cells assessed as late apoptotic cells at 50 nmol/L incubated for 72 hrs by Annexin V/PI staining based flow cytometry analysis (reference value: 5.14%); type: functional
[25] = target: Histone-lysine N-methyltransferase 2A/WDR5 (Homo sapiens, UniProt P61964); experiment: Inhibition of MLL1/WDR5 (unknown origin) protein-protein interaction incubated for 2 hrs by FP analysis; type: protein assay
[26] = Toxicity in mouse implanted in human MV4-11 cells assessed as animal death at 10 to 30 mg/kg, ip administered daily for 17 days; type: organism-based; conditions: in vivo, 408 h, dose 10-30 mg/kg, time 17 day
MV4-11 [27] = experiment: Induction of apoptosis in human MV4-11 cells assessed as viable cells at 100 nmol/L incubated for 72 hrs by Annexin V/PI staining based flow cytometry analysis (reference value: 90.23%); type: functional; conditions: read-out: Activity
[28] = target: Histone-lysine N-methyltransferase 2A (Homo sapiens, UniProt Q03164); experiment: Inhibition of MLL1 (unknown origin) by fluorescence based assay
Histone deacetylase 11 = target: T1, Histone deacetylase 11 (Homo sapiens, UniProt Q96DB2); experiment: Inhibition of HDAC11 (unknown origin) by fluorescence based assay
T1 sequence (Q96DB2 whole entry): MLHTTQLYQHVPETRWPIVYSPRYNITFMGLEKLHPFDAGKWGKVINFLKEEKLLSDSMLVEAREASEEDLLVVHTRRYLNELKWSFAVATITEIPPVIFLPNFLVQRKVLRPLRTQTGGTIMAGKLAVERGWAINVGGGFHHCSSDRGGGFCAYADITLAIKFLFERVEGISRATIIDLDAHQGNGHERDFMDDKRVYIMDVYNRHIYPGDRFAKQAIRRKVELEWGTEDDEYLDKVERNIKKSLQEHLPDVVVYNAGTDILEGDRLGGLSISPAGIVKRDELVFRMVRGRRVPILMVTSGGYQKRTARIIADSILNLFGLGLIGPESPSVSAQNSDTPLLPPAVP

MV4-11 [29] = experiment: cells; type: functional, cell-based; conditions: Homo sapiens, MV4-11, 72 h
Description: Antiproliferative activity against human MV4-11 cells assessed as inhibition of cell growth measured after 72 hrs by CellTiterGlo assay

MV4-11 [30] = experiment: Antitumor activity against human MV4-11 cells xenografted in mouse assessed as tumor growth inhibition at 10 mg/kg, ip administered daily for 17 days; type: functional; conditions: MV4-11, 408 h, time 17 day, read-out: TGI

Sequence of Histone-lysine N-methyltransferase 2A (Q03164 1-2718 limits assumed): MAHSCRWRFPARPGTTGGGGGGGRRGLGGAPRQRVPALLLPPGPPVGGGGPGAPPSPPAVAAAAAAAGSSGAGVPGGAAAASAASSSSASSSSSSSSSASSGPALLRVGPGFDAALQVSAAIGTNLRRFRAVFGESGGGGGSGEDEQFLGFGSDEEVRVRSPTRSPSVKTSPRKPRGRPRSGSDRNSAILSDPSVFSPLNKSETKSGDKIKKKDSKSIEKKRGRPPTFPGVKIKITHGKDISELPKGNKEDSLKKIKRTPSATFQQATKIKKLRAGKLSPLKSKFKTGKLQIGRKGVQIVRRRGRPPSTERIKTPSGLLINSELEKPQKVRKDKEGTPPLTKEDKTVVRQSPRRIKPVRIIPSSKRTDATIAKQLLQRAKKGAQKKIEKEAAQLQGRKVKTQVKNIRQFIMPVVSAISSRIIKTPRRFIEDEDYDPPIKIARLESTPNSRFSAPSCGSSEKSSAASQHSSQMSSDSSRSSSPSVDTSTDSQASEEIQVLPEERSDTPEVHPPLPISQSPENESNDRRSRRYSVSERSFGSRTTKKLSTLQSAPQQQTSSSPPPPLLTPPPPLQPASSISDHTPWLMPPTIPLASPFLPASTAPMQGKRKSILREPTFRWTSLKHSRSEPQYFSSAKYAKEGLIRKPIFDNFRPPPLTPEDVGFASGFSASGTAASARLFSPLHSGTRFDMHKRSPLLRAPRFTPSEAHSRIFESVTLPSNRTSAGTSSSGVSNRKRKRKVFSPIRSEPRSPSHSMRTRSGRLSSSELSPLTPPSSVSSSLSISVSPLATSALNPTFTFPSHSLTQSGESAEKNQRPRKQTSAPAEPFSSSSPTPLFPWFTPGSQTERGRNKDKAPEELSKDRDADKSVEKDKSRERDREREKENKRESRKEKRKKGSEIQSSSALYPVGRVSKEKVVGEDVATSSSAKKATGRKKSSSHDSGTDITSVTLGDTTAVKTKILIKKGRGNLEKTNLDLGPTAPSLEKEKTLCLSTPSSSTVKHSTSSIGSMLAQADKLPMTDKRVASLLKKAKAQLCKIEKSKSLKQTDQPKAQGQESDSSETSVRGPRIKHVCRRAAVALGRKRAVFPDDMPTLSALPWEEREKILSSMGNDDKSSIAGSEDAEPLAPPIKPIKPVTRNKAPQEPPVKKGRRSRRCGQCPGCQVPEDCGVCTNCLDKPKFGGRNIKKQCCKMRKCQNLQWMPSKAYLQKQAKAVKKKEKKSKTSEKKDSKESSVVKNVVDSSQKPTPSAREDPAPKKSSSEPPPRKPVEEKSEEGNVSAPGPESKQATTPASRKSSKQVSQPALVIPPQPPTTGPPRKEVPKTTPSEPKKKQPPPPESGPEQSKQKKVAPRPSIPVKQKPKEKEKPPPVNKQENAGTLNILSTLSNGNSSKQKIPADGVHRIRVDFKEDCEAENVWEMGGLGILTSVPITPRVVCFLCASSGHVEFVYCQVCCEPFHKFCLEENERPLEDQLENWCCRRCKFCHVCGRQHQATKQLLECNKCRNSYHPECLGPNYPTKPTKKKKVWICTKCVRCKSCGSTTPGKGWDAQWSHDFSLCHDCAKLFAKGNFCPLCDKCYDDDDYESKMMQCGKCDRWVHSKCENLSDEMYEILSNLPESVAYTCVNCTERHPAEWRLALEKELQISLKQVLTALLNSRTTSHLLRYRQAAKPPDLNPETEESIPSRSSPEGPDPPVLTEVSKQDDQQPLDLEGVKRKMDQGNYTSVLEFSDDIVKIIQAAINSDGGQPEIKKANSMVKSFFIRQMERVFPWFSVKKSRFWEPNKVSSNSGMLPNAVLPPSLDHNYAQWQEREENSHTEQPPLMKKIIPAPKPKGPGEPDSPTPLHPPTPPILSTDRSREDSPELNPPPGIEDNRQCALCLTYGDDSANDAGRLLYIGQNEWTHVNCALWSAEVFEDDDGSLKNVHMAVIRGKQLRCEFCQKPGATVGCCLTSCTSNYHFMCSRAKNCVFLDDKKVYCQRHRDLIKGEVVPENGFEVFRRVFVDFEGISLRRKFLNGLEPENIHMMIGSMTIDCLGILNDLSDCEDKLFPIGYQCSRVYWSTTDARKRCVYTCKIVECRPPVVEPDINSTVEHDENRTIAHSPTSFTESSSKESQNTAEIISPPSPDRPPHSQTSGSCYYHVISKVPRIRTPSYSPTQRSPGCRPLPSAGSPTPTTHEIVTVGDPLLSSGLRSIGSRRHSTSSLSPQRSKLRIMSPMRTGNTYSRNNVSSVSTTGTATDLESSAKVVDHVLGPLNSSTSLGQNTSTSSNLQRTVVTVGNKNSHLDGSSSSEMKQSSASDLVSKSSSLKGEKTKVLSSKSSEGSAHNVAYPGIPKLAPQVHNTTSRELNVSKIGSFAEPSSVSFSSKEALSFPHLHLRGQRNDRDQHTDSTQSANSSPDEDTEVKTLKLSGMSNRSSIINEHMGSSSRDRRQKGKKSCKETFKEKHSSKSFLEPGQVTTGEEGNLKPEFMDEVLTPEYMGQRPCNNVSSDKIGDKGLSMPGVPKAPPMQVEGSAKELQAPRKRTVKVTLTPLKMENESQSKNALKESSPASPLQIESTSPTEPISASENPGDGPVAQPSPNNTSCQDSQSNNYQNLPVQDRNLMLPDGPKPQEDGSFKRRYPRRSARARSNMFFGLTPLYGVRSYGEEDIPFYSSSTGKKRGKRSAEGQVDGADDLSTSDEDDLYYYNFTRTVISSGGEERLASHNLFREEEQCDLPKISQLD
Sequence of Histone-lysine N-methyltransferase 2A (Q03164 2719-3969 limits assumed): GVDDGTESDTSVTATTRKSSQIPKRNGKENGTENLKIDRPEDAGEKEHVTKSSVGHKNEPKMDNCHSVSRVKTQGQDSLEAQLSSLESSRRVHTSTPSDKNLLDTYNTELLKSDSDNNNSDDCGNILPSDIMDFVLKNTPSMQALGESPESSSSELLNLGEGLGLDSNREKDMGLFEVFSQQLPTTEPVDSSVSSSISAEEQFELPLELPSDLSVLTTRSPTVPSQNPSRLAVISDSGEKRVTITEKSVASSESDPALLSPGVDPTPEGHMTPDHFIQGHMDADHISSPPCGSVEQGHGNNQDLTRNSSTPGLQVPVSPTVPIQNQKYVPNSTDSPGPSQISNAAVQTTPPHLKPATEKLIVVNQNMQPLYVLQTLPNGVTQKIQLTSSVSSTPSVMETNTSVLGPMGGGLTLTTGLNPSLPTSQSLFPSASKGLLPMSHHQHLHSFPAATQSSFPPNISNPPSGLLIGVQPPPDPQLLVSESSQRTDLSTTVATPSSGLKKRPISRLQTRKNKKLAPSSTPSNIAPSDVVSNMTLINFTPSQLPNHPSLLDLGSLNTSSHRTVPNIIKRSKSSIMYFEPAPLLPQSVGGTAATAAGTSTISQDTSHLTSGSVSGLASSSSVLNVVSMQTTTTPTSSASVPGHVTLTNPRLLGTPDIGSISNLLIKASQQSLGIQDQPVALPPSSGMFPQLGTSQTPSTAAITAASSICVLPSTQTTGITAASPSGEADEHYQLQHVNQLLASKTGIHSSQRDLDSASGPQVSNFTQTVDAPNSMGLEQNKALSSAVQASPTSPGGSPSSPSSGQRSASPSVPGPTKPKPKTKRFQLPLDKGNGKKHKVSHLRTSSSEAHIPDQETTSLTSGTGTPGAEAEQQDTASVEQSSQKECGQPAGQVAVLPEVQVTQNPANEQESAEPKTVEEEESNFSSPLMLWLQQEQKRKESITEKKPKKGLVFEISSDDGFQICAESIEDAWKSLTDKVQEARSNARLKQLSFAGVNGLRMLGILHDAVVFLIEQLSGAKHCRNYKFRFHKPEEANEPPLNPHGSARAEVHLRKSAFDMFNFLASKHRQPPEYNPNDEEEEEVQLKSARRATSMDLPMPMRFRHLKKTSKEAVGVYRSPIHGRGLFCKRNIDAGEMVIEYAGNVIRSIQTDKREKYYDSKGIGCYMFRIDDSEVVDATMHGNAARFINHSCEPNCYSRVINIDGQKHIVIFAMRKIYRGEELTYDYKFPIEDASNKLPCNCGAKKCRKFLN
Sequence of Histone deacetylase 4 (P56524 whole entry): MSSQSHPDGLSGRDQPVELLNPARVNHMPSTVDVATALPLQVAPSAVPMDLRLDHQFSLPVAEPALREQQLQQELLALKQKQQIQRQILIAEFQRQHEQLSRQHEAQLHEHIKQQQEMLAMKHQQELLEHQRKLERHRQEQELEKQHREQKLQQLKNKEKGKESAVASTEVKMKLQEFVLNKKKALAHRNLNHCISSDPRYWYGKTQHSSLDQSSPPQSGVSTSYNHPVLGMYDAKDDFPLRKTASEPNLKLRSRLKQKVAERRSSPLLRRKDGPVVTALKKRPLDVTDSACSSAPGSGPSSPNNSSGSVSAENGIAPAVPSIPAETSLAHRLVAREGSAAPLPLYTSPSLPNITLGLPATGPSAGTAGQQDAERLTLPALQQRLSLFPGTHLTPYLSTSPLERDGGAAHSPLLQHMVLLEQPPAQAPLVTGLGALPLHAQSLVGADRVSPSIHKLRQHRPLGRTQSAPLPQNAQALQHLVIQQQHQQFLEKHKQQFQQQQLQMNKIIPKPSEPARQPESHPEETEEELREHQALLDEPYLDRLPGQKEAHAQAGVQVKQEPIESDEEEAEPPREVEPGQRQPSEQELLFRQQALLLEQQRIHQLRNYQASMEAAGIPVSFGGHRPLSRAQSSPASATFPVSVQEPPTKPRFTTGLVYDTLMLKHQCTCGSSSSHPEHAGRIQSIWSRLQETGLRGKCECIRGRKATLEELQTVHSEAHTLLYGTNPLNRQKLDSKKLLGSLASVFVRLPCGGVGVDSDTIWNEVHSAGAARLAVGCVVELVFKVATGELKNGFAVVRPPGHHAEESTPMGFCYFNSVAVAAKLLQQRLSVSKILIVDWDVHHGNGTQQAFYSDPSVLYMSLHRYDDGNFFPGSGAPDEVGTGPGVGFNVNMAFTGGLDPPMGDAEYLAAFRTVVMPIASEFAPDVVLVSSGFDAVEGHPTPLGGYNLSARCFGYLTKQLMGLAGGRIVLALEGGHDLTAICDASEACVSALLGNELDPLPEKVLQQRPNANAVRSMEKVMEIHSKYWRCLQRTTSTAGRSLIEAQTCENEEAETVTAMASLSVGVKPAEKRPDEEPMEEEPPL

Q: Which inhibition of growth at 0.5 µM (MV4-11 [1]) does the source give for `Cc1c(F)c(N)cc(C(=O)Nc2cc(-c3ccc(C(=O)N4CCOCC4)cc3)ccc2N2CCN(C)CC2)c1Cl` here?
A: 27.5%

Q: And the inhibition of growth at 0.05 µM (MV4-11 [2])?
A: 30.1%

Q: What about the inhibition of growth at 2 µM (MV4-11 [3]) of the same molecule?
A: 68.6%

Q: What about the inhibition of growth at 2 µM (MV4-11 [4]) of the same molecule?
A: 72.3%

Q: And the inhibition of growth at 0.5 µM (MV4-11 [5])?
A: 58.9%

Q: And the inhibition of growth at 2 µM (MV4-11 [6])?
A: 89.4%

Q: What about the inhibition of growth at 0.4 µM (MV4-11 [7]) of the same molecule?
A: 62.6%

Q: And the inhibition of growth at 1 µM (MV4-11 [8])?
A: 68.7%

Q: And the inhibition of growth at 1 µM (MV4-11 [9])?
A: 52.1%

Q: What about the inhibition of growth at 2 µM (MV4-11 [10]) of the same molecule?
A: 95.2%

Q: What about the inhibition of growth at 2 µM (MV4-11 [11]) of the same molecule?
A: 95.6%

Q: What about the inhibition of growth at 0.1 µM (MV4-11 [12]) of the same molecule?
A: 49.3%

Q: What about the inhibition of growth at 0.4 µM (MV4-11 [13]) of the same molecule?
A: 73.3%

Q: What about the Activity (MV4-11 [14]) of the same molecule?
A: 7.65%

Q: And the inhibition of growth at 0.05 µM (MV4-11 [15])?
A: 45.1%

Q: And the inhibition of growth at 0.05 µM (MV4-11 [16])?
A: 17.5%

Q: What about the inhibition of growth at 0.2 µM (MV4-11 [17]) of the same molecule?
A: 74.7%

Q: What about the inhibition of growth at 0.5 µM (MV4-11 [18]) of the same molecule?
A: 51.7%

Q: And the inhibition of growth at 0.2 µM (MV4-11 [19])?
A: 60.3%

Q: What about the inhibition of growth at 0.4 µM (MV4-11 [20]) of the same molecule?
A: 55%

Q: And the Activity (MV4-11 [21])?
A: 1.55%

Q: Which Activity (MV4-11 [22]) does the source give for `Cc1c(F)c(N)cc(C(=O)Nc2cc(-c3ccc(C(=O)NCc4ccc(/C=C/C(=O)NO)cc4)cc3)ccc2N2CCN(C)CC2)c1Cl` here?
A: 2.44%

Q: And the inhibition in vivo at 30 mg/kg (MV4-11 [23])?
A: 87.1%

Q: What about the IC50 (Histone deacetylase 4) of the same molecule?
A: 4690 nM

Q: And the Activity (MV4-11 [24])?
A: 10.86%

Q: What about the IC50 [25] of the same molecule?
A: 42 nM

Q: What about the Activity [26] of the same molecule?
A: Non-toxic

Q: And the viability at 0.1 µM (MV4-11 [27])?
A: 71.5%

Q: And the IC50 [28]?
A: 131 nM

Q: What about the IC50 (Histone deacetylase 11) of the same molecule?
A: > 10000 nM

Q: What about the IC50 (MV4-11 [29]) of the same molecule?
A: 65 nM

Q: What about the inhibition in vivo at 10 mg/kg (MV4-11 [30]) of the same molecule?
A: 42.3%
